Assay results published in article PMC3820767, “Turning Defense into Offense: Defensin Mimetics as Novel Antibiotics Targeting Lipid II” (PLoS Pathogens, 2013).
Converted amounts (≈) assume the structure as drawn. Like-named read-outs stand apart in the source and are kept apart here.

Experiments:
[1] = Surface Plasmon Resonance binding to immobilized 3-Lipid II; conditions: SPR; for Binding on Lipid II?: Table S3, initial determination at 10 µM; for Kd: immobilized 3-Lipid II
Experimental: Surface Plasmon Resonance binding experiments were carried out on a BIAcore T100 system (BIAcore Inc., Piscataway, NY) at 25°C. The assay buffer was 10 mM HEPES, 150 mM NaCl, 0.05% surfactant P20, pH 7.4 (±3 mM EDTA) supplemented with 10% DMSO. […] For initial determination of binding, defensin mimetics were introduced into the flow-cells (30 µl/min) in the running buffer at 10 µM. Resonance signals were corrected for nonspecific binding by subtracting the background of the control flow-cell. After each analysis, the sensor chip surfaces were regenerated with 50 mM NaOH for 30 s at a flow rate 100 µl/min, and equilibrated with the buffer prior to next injection. For binding kinetics studies, binding isotherms were analyzed with manufacturer-supplied software for BIAcore T100.

[2] = test system: Escherichia coli ATCC 25922; assay: Antibacterial killing, 96-well turbidimetric (modified vCC) assay; type: cell-based; conditions: for active against E.coli (IC100%): Table S3, concentration at which 100% killing occurred, no bacterial regrowth, No = not active; for Bacterial Killing E. coli: concentration resulting in 100% killing after 30 min exposure, modified vCC assay
Experimental: (§1) The antibacterial activity of defensin mimetics against Staphylococcus aureus ATCC 29213 and Escherichia coli 25922 was carried out in a 96-well turbidimetric assay essentially as described previously with the following modifications: bacteria were exposed for 30 min to compounds in 10 mM phosphate buffer containing 5% DMSO prior to addition of 2× Muller-Hinton medium. Bacterial growth was monitored for 12 hours and data were analyzed as described. Determination of MICs was performed by Micromyx, LLC (Kalamazoo, Michigan) according to CLSI standards.

[3] = test system: Staphylococcus aureus ATCC 29213; assay: as above; type: cell-based; conditions: for active against S.aureus (IC100%): Table S3, concentration at which 100% killing occurred, no bacterial regrowth, No = not active; for Bacterial Killing S. aureus: concentration resulting in 100% killing after 30 min exposure, modified vCC assay
Experimental: as §1

[4] = test system: Caco-2; assay: Cytotoxicity by MTT assay; type: cell-based, human
[5] = test system: Jurkat; assay: Cytotoxicity by MTT assay; type: cell-based, human
[6] = test system: Streptococcus pneumonia (PRSP) MMX884; assay: Broth microdilution susceptibility testing (CLSI); type: cell-based, Streptococcus pneumoniae
Experimental: as §1

[7] = test system: Enterococcus faecalis (VRE) MMX848; assay: Broth microdilution susceptibility testing (CLSI); type: cell-based
Experimental: as §1

[8] = test system: Enterococcus faecalis MMX101-ATCC 29212; assay: Broth microdilution susceptibility testing (CLSI); type: cell-based
Experimental: as §1

[9] = test system: Escherichia coli MMX102-ATCC 25922; assay: Broth microdilution susceptibility testing (CLSI); type: cell-based
Experimental: as §1

[10] = test system: Pseudomonas aeruginosa MMX103-ATCC 27853; assay: Broth microdilution susceptibility testing (CLSI); type: cell-based
Experimental: as §1

[11] = test system: Staphylococcus aureus (MRSA) MMX757; assay: Broth microdilution susceptibility testing (CLSI); type: cell-based
Experimental: as §1

[12] = test system: Staphylococcus aureus MMX100-ATCC 29213; assay: Broth microdilution susceptibility testing (CLSI); type: cell-based
Experimental: as §1

[13] = test system: Streptococcus pneumoniae MMX1195-ATCC 49619; assay: Broth microdilution susceptibility testing (CLSI); type: cell-based
Experimental: as §1

SMILES	Binding on Lipid II? [1]	Kd [1] [µM]	active against E.coli (IC100%) [2]	Bacterial Killing E. coli [2] [µM]	active against S.aureus (IC100%) [3]	Bacterial Killing S. aureus [3] [µM]	IC50 [4] [µM]	IC50 [5] [µM]	MIC Streptococcus pneumonia (PRSP) 884-NA [6] [µg/mL]	MIC Enterococcus faecalis (VRE) 848-NA [7] [µg/mL]	MIC Enterococcus faecalis 101-29212 [8] [µg/mL]	MIC Escherichia coli 102-25922 [9] [µg/mL]	MIC Pseudomonas aeruginosa 103-27853 [10] [µg/mL]	MIC Staphylococcus aureus (MRSA) 757-NA [11] [µg/mL]	MIC Staphylococcus aureus 100-29213 [12] [µg/mL]	MIC Streptococcus pneumoniae 1195-49619 [13] [µg/mL]	cytotoxic for Caco II (C50% survival) [4]	also measured
CN(C)c1ccc(/C=C/c2cc(C(C)(C)C)[o+]c(C(C)(C)C)c2)cc1 [Compound 1493-0289, 2,6-di-tert-butyl-4-[(E)-2-[4-(dimethylamino)phenyl]ethenyl]-1$l^4-pyran-1-ylium]	Yes	4.26	125 µM	125	3,9 µM	3.9	6.8	41.7	16	4	2	>8	>8	2	1	16	–	–
Oc1ccccc1Oc1c(F)c(F)c(-c2c(F)c(F)c(Oc3ccccc3O)c(F)c2F)c(F)c1F [Compound 1611-0203, 2-{2,3,5,6-tetrafluoro-4-[2,3,5,6-tetrafluoro-4-(2-hydroxyphenoxy)phenyl]phenoxy}phenol]	–	59.6	–	>500	3,9 µM	3.9	–	–	>16	1 (≈ 1.94 µM)	1 (≈ 1.94 µM)	>4	>4	2 (≈ 3.89 µM)	2 (≈ 3.89 µM)	>16	–	IC50 ([4]; concentration resulting in 50% cell survival, MTT, 24 h, read-out: Cytotoxicity (C50%) Caco-2): 4.2 µM; IC50 ([5]; concentration resulting in 50% cell survival, MTT, 4 h, read-out: Cytotoxicity (C50%) Jurkat): 63.4 µM
CC[n+]1c(/C=C2C=C(/C=C/N(C)c3ccccc3)CC(C)(C)C/2)sc2ccccc21 [Compound 4090-1978, 2-{[(1E)-5,5-dimethyl-3-[(E)-2-[methyl(phenyl)amino]ethenyl]cyclohex-2-en-1-ylidene]methyl}-3-ethyl-1,3-benzothiazol-3-ium]	No	–	62,5 µM	62.5	15,625 µM	15.6	16.7	87.3	>8	16	16	64	>64	2	2	>8	–	–
Oc1ccc2ccccc2c1C(c1ccc(Cl)cc1)c1c(O)ccc2ccccc12 [Compound 363003]	Yes	39.5	No	>500	3,9 µM	3.9	3.5	12.7	16 (≈ 38.9 µM)	1 (≈ 2.43 µM)	1 (≈ 2.43 µM)	>32	>32	1 (≈ 2.43 µM)	1 (≈ 2.43 µM)	8 (≈ 19.5 µM)	–	–
CC(=O)NC[C@H]1CN(c2ccc(N3CCOCC3)c(F)c2)C(=O)O1 [Linezolid, reference compound]	–	–	–	–	–	–	–	–	–	–	–	–	–	–	–	–	–	MIC ([6]; Streptococcus pneumoniae, PRSP, read-out: MIC Streptococcus pneumonia (PRSP) 884-NA): 2 µg/mL (≈ 5.93 µM); MIC ([7]; Enterococcus faecalis, VRE, read-out: MIC Enterococcus faecalis (VRE) 848-NA): 2 µg/mL (≈ 5.93 µM); MIC ([8]; Enterococcus faecalis, ATCC29212, read-out: MIC Enterococcus faecalis 101-29212): 2 µg/mL (≈ 5.93 µM); MIC ([9]; Escherichia coli, ATCC25922, read-out: MIC Escherichia coli 102-25922): > 64 µg/mL; MIC ([10]; Pseudomonas aeruginosa, ATCC27853, read-out: MIC Pseudomonas aeruginosa 103-27853): > 64 µg/mL; MIC ([11]; Staphylococcus aureus, MRSA, read-out: MIC Staphylococcus aureus (MRSA) 757-NA): 4 µg/mL (≈ 11.9 µM); MIC ([12]; Staphylococcus aureus, ATCC29213, read-out: MIC Staphylococcus aureus 100-29213): 4 µg/mL (≈ 11.9 µM); MIC ([13]; Streptococcus pneumoniae, ATCC49619, read-out: MIC Streptococcus pneumoniae 1195-49619): 2 µg/mL (≈ 5.93 µM)
CCn1c2ccccc2c2cc(N/C=C(\C#N)c3nc(-c4ccc(C)cc4C)cs3)ccc21 [STK537076, (2E)-2-[4-(2,4-dimethylphenyl)-1,3-thiazol-2-yl]-3-[(9-ethyl-9H-carbazol-3-yl)amino]prop-2-enenitrile]	No	–	No	–	No	–	240	–	–	–	–	–	–	–	–	–	–	–
CCN1/C(=C/C=C/C=C/C2=CC(=C/c3sc4ccccc4[n+]3CC)/CC(C)(C)C2)Sc2ccccc21 [STK792971, 3-ethyl-2-[(E)-{3-[(1E,3E,5Z)-5-(3-ethyl-1,3-benzothiazol-2(3H)-ylidene)penta-1,3-dien-1-yl]-5,5-dimethylcyclohex-2-en-1-ylidene}methyl]-1,3-benzothiazol-3-ium]	No	–	No	–	62,5 µM	–	–	–	–	–	–	–	–	–	–	–	No	–
CC[n+]1c(/C=C/C=C/N(C(C)=O)c2ccccc2)sc2cc(OC)ccc21 [STK874226, 2-{(1E,3E)-4-[acetyl(phenyl)amino]buta-1,3-dien-1-yl}-3-ethyl-6-methoxy-1,3-benzothiazol-3-ium]	No	–	250 µM	–	125 µM	–	–	–	–	–	–	–	–	–	–	–	No	–
COc1ccc(-c2cn(CC(=O)N(c3ccccc3)C(C)C)c3[n+]2CCC3)cc1 [STL050072, 3-(4-methoxyphenyl)-1-{2-oxo-2-[phenyl(propan-2-yl)amino]ethyl}-1,5,6,7-tetrahydropyrrolo[1,2-a]imidazol-4-ium]	No	–	No	–	No	–	340	–	–	–	–	–	–	–	–	–	–	–
CN1CCC(N(Cc2ccccc2)C(=O)CCc2ccc3c(c2)n(C)c(=O)n3C)CC1 [SYN22879441, N-Benzyl-3-(1,3-dimethyl-2-oxo-2,3-dihydro-1H-benzoimidazol-5-yl)-N-(1-methyl-piperidin-4-yl)-propionamide]	No	–	No	–	No	–	–	–	–	–	–	–	–	–	–	–	No	–
